From patent US12404268B2, “2-heteroaryl aminoquinazolinone derivative” (Sumitomo Pharma Co., Ltd., priority 2020, dated 2025)

These compounds were tested on neurons induced to differentiate from SCN1A gene deficient human iPS cells (assay: Test for measuring hyperexcitation suppression activity (spontaneous calcium oscillation frequency)). Settings: Homo sapiens, Neuron; @0.1 μM; read-out: inhibition rate.
Type: cell-based
From the text: Test for Measuring Hyperexcitation Suppression Activity Using Neurons Induced to Differentiate from SCN1A Gene Deficient Human iPS Cells
(1) Induction of Differentiation from Human iPS cells to Neurons
Half of the culture solution was exchanged once every 3 to 4 days.
(2) Fluorescent Calcium Probe Treatment, Addition of Compound, and Evaluation of Intracellular Calcium Concentration
Half of the culture solution was removed on day 60 from induction of differentiation or thereafter. A medium for measurement comprising a fluorescent calcium probe (Molecular Device, product name: FLIPR Calcium 6 Assay Bulk Kit, cat #R8191) was added at an amount equal to the remaining medium. The culture was left standing for 30 minutes and subjected to measurement.
The test compounds were serially diluted with a dimethyl sulfoxide (DMSO) solution so that the final concentration would be 0.1 to 100 μM to prepare a concentrate with a concentration that is 6-fold of the final concentration.
The intensity of fluorescence of a calcium probe was measured over time with FDSS7000EX (Hamamatsu Photonics) to evaluate the change in intracellular calcium concentrations. First, the intensity of fluorescence was measured for 2 minutes. The compound solutions were then added using FDSS7000EX for an additional 8 minute measurement of fluorescence intensity. The frequency of spontaneous calcium oscillation was quantified as an indicator of nerve excitation. With the frequency for 2 minutes before the addition of the compound solutions as 100%, the ratio of frequency for the last 2 minutes after addition of the compound solutions was calculated.

Compound	inhibition at 0.1 µM [%]
N#Cc1ccc2nc(Nc3cncc(F)c3)n(-c3ccccc3)c(=O)c2c1 [Example 112, 2-((5-fluoropyridin-3-yl)amino)-4-oxo-3-phenyl-3,4-dihydroquinazoline-6-carbonitrile]	32

Same assay, conditions: Homo sapiens, Neuron; @1 μM; read-out: inhibition rate

Compound	inhibition at 1 µM [%]
Cn1nccc1-n1c(Nc2cccnc2)nc2ccc(F)cc2c1=O [Example 150]	26
O=c1c2cccc(F)c2nc(Nc2cccnc2)n1-c1ccccc1 [Example 115]	81
O=c1c2ccccc2nc(Nc2ccc3cnoc3c2)n1-c1ccccc1 [Example 94]	27
N#Cc1ccc2nc(Nc3cncc(F)c3)n(-c3ccccc3F)c(=O)c2c1 [Example 113, 3-(2-fluorophenyl)-2-((5-fluoropyridin-3-yl)amino)-4-oxo-3,4-dihydroquinazoline-6-carbonitrile]	91
Cc1ccc(Nc2nc3ccc(F)cc3c(=O)n2-c2ccccc2)nc1 [Example 137, 6-fluoro-2-((5-methylpyridin-2-yl)amino)-3-phenylquinazolin-4(3H)-one]	85
O=c1c2cc(F)ccc2nc(Nc2cccnc2)n1C1(c2ccccc2)COC1 [Example 168]	58
O=c1c2cc(F)ccc2nc(Nc2cncc(C(F)(F)F)c2)n1-c1ccccc1 [Example 48]	55
CN1[C@@H]2CC[C@H]1C[C@@H](n1c(Nc3cccnc3)nc3ccccc3c1=O)C2 [Example 79]	47
O=c1c2cc(Cl)ccc2nc(Nc2cccnc2)n1-c1ccccc1F [Example 51, 6-chloro-3-(2-fluorophenyl)-2-(pyridin-3-ylamino)quinazolin-4(3H)-one]	100
Cc1cccnc1Nc1nc2ccc(Cl)cc2c(=O)n1-c1ccccc1 [Example 26]	23
Cc1ccccc1-n1c(Nc2cccnc2)nc2c(F)cccc2c1=O [Example 122]	61
Cc1nc(Nc2nc3ccc(F)cc3c(=O)n2-c2ccccc2)cs1 [Example 174]	78
Cc1ccc2nc(Nc3cccnc3)n(-c3ccccc3)c(=O)c2c1 [Example 42, 6-methyl-3-phenyl-2-(pyridin-3-ylamino)quinazolin-4(3H)-one]	98
CN(C)c1cccc(-n2c(Nc3cccnc3)nc3ccc(F)cc3c2=O)c1 [Example 181]	73
O=c1c2cc(Cl)ccc2nc(Nc2cnccn2)n1-c1ccccc1 [Example 38, 6-chloro-3-phenyl-2-(pyrazin-2-ylamino)quinazolin-4(3H)-one]	88
COc1cncc(Nc2nc3ccc(F)cc3c(=O)n2-c2ccccc2)c1 [Example 28]	32
O=c1c2cc(F)ccc2nc(Nc2cccnc2)n1-c1cccc(F)c1 [Example 123]	56
O=c1c2cc(F)ccc2nc(Nc2cccnc2)n1-c1ccc(Cl)cc1 [Example 135]	24
O=c1c2cc(F)ccc2nc(Nc2cccnc2)n1-c1ccsc1 [Example 161]	35
O=c1c2cc(F)ccc2nc(Nc2cccnc2)n1C1(c2ccccc2)CC1 [Example 153]	99
O=c1c2cc(Cl)ccc2nc(Nc2cccnc2)n1-c1ccccc1 [Example 31, 6-chloro-3-phenyl-2-(pyridin-3-ylamino)quinazolin-4(3H)-one]	93
O=c1c2cc(F)ccc2nc(Nc2ccnc(F)c2)n1-c1ccccc1 [Example 141, 6-fluoro-2-((2-fluoropyridin-4-yl)amino)-3-phenylquinazolin-4(3H)-one]	97
O=c1c2cc(F)ccc2nc(Nc2cccc(F)n2)n1-c1ccccc1 [Example 129]	50
O=c1c2ccccc2nc(Nc2cccnc2)n1C1CCCCC1 [Example 57]	21

Same assay, conditions: Homo sapiens, Neuron; @10 μM; read-out: inhibition rate

Compound	inhibition at 10 µM [%]
Cc1ccccc1C1(n2c(Nc3cccnc3)nc3ccc(F)cc3c2=O)CC1 [Example 167]	100
O=c1c2cc(Cl)ccc2nc(Nc2ccncn2)n1-c1ccccc1 [Example 146]	11
CN1[C@@H]2CC[C@H]1C[C@H](n1c(Nc3cccnc3)nc3ccc(F)cc3c1=O)C2 [Example 85]	59
C[C@]1(N)CC[C@@H](n2c(Nc3cccnc3)nc3ccccc3c2=O)CC1 [Example 74]	100
CN1CCC[C@H](n2c(Nc3cccnc3)nc3ccc(F)cc3c2=O)C1 [Example 81]	35
COc1ccc(Nc2nc3ccc(F)cc3c(=O)n2-c2ccccc2)nc1 [Example 149]	32
O=c1c2cc(Cl)ccc2nc(Nc2ccc(C(F)(F)F)cn2)n1-c1ccccc1 [Example 53]	79
O=c1c2ccccc2nc(Nc2ccc3cncn3c2)n1-c1ccccc1 [Example 68]	100
Cn1cnc2c(Nc3nc4ccccc4c(=O)n3-c3ccccc3)cccc21 [Example 93]	53
COCc1nccc(Nc2nc3ccc(F)cc3c(=O)n2-c2ccccc2)n1 [Example 37]	68
O=c1c2cc(F)ccc2nc(Nc2cccnc2)n1CCc1ccccc1 [Example 158]	100
CC(C)n1c(Nc2cccnc2)nc2ccccc2c1=O [Example 55]	88
O=c1c2cc(F)ccc2nc(Nc2cccnc2)n1Cc1ccccn1 [Example 157]	90
CN1CC[C@H](n2c(Nc3cccnc3)nc3ccc(F)cc3c2=O)C1 [Example 82]	17
Cn1cc(Nc2nc3ccc(Cl)cc3c(=O)n2-c2ccccc2)cn1 [Example 186]	100
O=c1c2ccccc2nc(Nc2cccnc2)n1C1CCCC1 [Example 56]	100
CN1CCC(n2c(Nc3cccnc3)nc3ccccc3c2=O)CC1 [Example 78]	100
O=c1c2ccccc2nc(Nc2cccc3ocnc23)n1-c1ccccc1 [Example 99]	94
O=c1c2cc(F)ccc2nc(Nc2cccnc2)n1Cc1ccccc1 [Example 151]	2
COCc1nccc(Nc2nc3ccc(Cl)cc3c(=O)n2-c2ccccc2)n1 [Example 21]	27
O=c1c2cc(Cl)ccc2nc(Nc2ncns2)n1-c1ccccc1 [Example 230]	2
Cc1cc(Nc2nc3ccc(F)cc3c(=O)n2-c2ccccc2)ccn1 [Example 139]	100
O=c1c2cc(F)ccc2nc(Nc2cccnc2)n1C12CCN(CC1)CC2 [Example 72]	100

Same assay, conditions: Homo sapiens, Neuron; @100 μM; read-out: inhibition rate

Compound	inhibition at 100 µM [%]
COc1cnccc1Nc1nc2ccc(F)cc2c(=O)n1-c1ccccc1 [Example 144]	16
O=c1c2cc(F)ccc2nc(Nc2cccnc2)n1CCO [Example 173]	6
O=c1c2ccccc2nc(Nc2ccc3oncc3c2)n1-c1ccccc1 [Example 148]	10
COc1cccc2c(=O)n(-c3ccccc3)c(Nc3cccnc3)nc12 [Example 116]	59
Cc1ccc2c(=O)n(-c3ccccc3)c(Nc3cccnc3)nc2c1 [Example 86]	31
O=c1c2cc(F)ccc2nc(Nc2cccnc2)n1-c1cncc(F)c1 [Example 184]	54
COc1cccc2nc(Nc3cccnc3)n(-c3ccccc3)c(=O)c12 [Example 92]	38

Same assay, conditions: Neuron; SCN1A gene deficient human iPS cell-derived neurons; FLIPR Calcium 6, FDSS7000EX; read-out: IC50 (50% inhibitory concentration, frequency of spontaneous calcium oscillation)

IC50 [µM]	Compound
> 100	Cc1cccc2c(=O)n(-c3ccccc3)c(Nc3cccnc3)nc12 [Example 224]
> 100	CN(C)c1cncc(Nc2nc3ccc(F)cc3c(=O)n2-c2ccccc2)c1 [Example 216]
> 10	CO[C@H]1CC[C@H](n2c(Nc3cccnc3)nc3ccc(F)cc3c2=O)CC1 [Example 200]
> 10	COc1cncc(Nc2nc3ccc(Cl)cc3c(=O)n2-c2ccccc2)c1 [Example 218]
2.7	Cc1ccncc1Nc1nc2ccc(Cl)cc2c(=O)n1-c1ccccc1 [Example 147]
> 10	CC1(n2c(Nc3cccnc3)nc3ccc(F)cc3c2=O)CC1 [Example 196]
> 100	Cc1ccccc1-n1c(Nc2cccnc2)nc2ccc(S(C)(=O)=O)cc2c1=O [Example 214]
1	Cc1ccc(Nc2nc3ccc(Cl)cc3c(=O)n2-c2ccccc2)cn1 [Example 8]
2.2	O=c1c2cc(F)ccc2nc(Nc2ccnnc2)n1-c1ccccc1 [Example 19]
> 100	CS(=O)(=O)Nc1ccc2nc(Nc3cccnc3)n(-c3ccccc3)c(=O)c2c1 [Example 211]
4.9	O=c1c2cc(F)ccc2nc(Nc2ccncn2)n1-c1ccccc1 [Example 20]
> 10	CN(C)c1ccc2nc(Nc3cccnc3)n(-c3ccccc3)c(=O)c2c1 [Example 212]
> 10	COc1cc2nc(Nc3cccc4ncccc34)n(C)c(=O)c2cc1OC [Example 220]
> 100	O=c1c2ccc(F)cc2nc(Nc2cncc(F)c2)n1-c1ccccc1 [Example 226]
> 100	CC(=O)Nc1ccc2nc(Nc3cccnc3)n(-c3ccccc3)c(=O)c2c1 [Example 210]
> 10	NC(=O)c1ccc(Nc2nc3ccc(Cl)cc3c(=O)n2-c2ccccc2)nc1 [Example 221]
> 100	O=c1c2cc(F)ccc2nc(Nc2csc(Cl)c2)n1-c1ccccc1 [Example 209]
